Laboratory results published in patent publication US20260364080A1, “PYRAZOLO-PYRIMIDINONE COMPOUNDS FOR USE IN METHODS OF INHIBITING WEE1 A KINASE” (Acrivon Therapeutics, Inc., priority 2023, published 2026).

What was measured:
[1] = target: T1, recombinant human Wee1A kinase (Homo sapiens, UniProt P30291); test: Wee1A kinase binding assay (LanthaScreen Eu time-resolved FRET); conditions: 30 nM tracer 178, 5 nM Wee1A kinase, 2 nM Eu-labeled antibody; 60 minutes at room temperature; read-out: Wee1A kinase Binding IC50
T1 construct: full length Wee1 kinase was expressed by baculovirus in insect cells; purchased Invitrogen PV3817; host or cells: insect cells (baculovirus)
T1 sequence (P30291 whole entry): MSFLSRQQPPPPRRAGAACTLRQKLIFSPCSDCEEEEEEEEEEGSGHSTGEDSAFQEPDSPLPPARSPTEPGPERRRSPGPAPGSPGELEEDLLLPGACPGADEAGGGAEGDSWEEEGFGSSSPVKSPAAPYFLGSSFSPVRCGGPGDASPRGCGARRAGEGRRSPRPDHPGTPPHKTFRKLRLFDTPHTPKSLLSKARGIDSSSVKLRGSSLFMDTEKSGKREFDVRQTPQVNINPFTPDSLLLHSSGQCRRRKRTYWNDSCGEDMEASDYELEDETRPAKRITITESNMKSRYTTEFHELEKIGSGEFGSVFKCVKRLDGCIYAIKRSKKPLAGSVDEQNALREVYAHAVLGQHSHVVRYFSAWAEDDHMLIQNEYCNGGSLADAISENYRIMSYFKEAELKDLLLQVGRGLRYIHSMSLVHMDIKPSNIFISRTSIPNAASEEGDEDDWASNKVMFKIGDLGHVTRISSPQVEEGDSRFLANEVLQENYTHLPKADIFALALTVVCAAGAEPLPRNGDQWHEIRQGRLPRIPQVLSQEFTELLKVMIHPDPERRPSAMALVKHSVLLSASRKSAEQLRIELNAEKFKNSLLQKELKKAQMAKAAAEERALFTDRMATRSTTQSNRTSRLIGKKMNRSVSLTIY
Protocol: This time resolved-FRET binding assay was performed in white 384-well low volume plates (Greiner, cat #784075), at room temperature in kinase buffer A (KBA; Invitrogen cat #PV3189), consisting of 50 mM HEPES-NaOH (pH 7.5), 0.01% Brij-35, 10 mM MgCl2, and 1 mM EGTA. 5 μL of compound (diluted in reaction buffer, to 1% DMSO) were added to various wells in the plate, followed by 5 μL each of recombinant human Wee1A kinase (full length Wee1 kinase was expressed by baculovirus in insect cells using a N-terminal GST tag (MW: 99.1 kDa) (Invitrogen cat #PV3817) and LanthaScreen Eu-anti-GST antibody (Invitrogen, cat #PV5594). After this, 5 μL of kinase tracer 178 (Invitrogen, cat #PV5593) was added to the plate and the plate was incubated for 60 minutes at room temperature. The final assay conditions in each well were: 30 nM tracer 178, 5 nM Wee1A kinase and 2 nM Eu-labeled antibody in total assay volume of 15 μL. An Envision 2104 (Perkin-Elmer) Plate Reader with the following time-resolve fluorescence setting was used for performing LanthaScreen kinase binding assay. • Excitation 320 nm (30 nm bandpass) • Kinase Tracer Emission 665 nm (10 nm bandpass) • LanthaScreen Eu-anti-Tag Antibody Emission 615 nm (10 nm bandpass) • Dichroic Mirror Instrument dependent • Delay Time 100 μs • Integration Time 200 μs
(§1) To calculate the emission ratio, the acceptor/tracer emission ([…]) was divided by the antibody/donor emission ([…]) and the average of duplicate measurement was used for calculations. Data plotting, analysis of binding, and curve fitting was done using Excel add-in XLfit version 5.5.0.5 (IDBS, Guildford, United Kingdom). […] “NT” means not tested.

[2] = target: T2, Wee1A kinase (CDK1 Tyr15 phosphorylation in ACHN renal cell carcinoma cells) (Homo sapiens, UniProt P30291); test: High-content imaging of pCdk1 Y15, Wee1A kinase target engagement in ACHN cells; type: cell-based; conditions: 4 h treatment, nuclear positivity for pCdk1 Y15 vs DMSO control, read-out: CDK1 Tyr15 Phosphorylation EC50
T2 construct: pCDK1 Tyr15 immunofluorescence read-out
T2 sequence (P30291 whole entry): as above
Protocol: Each of an ACHN renal cell carcinoma cell line (ATCC) and a DAOY medulloblastoma cell line, and an A427 lung cancer line were cultured in Minimum Essential Medium Eagle supplemented with 10% fetal calf serum (Sigma), 1% Penicillin-Streptomycin and 10 mM HEPES buffer (HyClone). Cell cultures were kept in a humidified incubator at 37 °C and 5% CO2. Cells were routinely tested for Mycoplasma contamination.
For target engagement assessment of Wee1A kinase inhibition, high-content imaging of ACHN renal cell carcinoma cells was used for quantification of CDK1 phosphorylated on tyrosine 15 by immunofluorescence (“IF”). 20,000 cells per well were seeded in tissue culture treated 96 well plates and treated with compounds at concentrations ranging from 7 to 5,000 nM or from 0.3 to 200 nM for 4h. Cells were fixated for 15 minutes in 4% paraformaldehyde solution, washed in PBS and permeabilized using 0.2% Triton X-100. Blocking was performed for 1 h at RT using Blocker FL Fluorescent Blocking Buffer (Thermo Scientific), thereafter cells were incubated with primary antibody (rabbit anti-pCDK1 Y^15, #4539, Cell Signaling Technology) at 4 °C ON. Alexa Fluor Plus 647 labelled goat anti-rabbit (A32733, Thermo Scientific) was used as secondary antibody. After washing in PBS, nuclei were stained with DAPI solution for 10 min at RT, protected from light. Cells were imaged using an ImageXpress Pico automated imaging system and CellReporter Xpress software (Molecular Devices). The percentage of cells with nuclear positivity for pCdk1 Y^15 compared to DMSO control was determined for each well and drug dose response curves and EC50 values were calculated and visualized using GraphPad Prism. Target engagement for Wee1A kinase can also be measured using the same AlphaLISA assay in OVCAR3 cells, an ovarian cancer cell line. NIH:OVCAR-3 (OVCAR3) cells are cultured in RPMI-1640 medium supplemented with 0.01 mg/ml insulin, 20% FBS, 1% Penicillin-Streptomycin and 10 mM HEPES buffer. 14,000 cells per well are seeded into 96 well tissue culture plates in full medium. Twenty-four hours post seeding, cells are treated with compound for 4 hours at concentrations ranging from 0.017 nM to 1000 nM.

[3] = target: T3, Myt1 kinase (recombinant PMYT-1) (Homo sapiens, UniProt Q99640); test: Myt1 kinase binding assay (LanthaScreen Eu Kinase Binding Assay); conditions: 3 nM tracer 178, 2.5 nM PMYT-1, 1 nM Eu-labeled antibody; read-out: Myt1 kinase Binding IC50
T3 construct: full length PMYT-1 was expressed by baculovirus in insect cells; purchased Invitrogen A30984; host or cells: insect cells (baculovirus)
T3 sequence (Q99640 1-499): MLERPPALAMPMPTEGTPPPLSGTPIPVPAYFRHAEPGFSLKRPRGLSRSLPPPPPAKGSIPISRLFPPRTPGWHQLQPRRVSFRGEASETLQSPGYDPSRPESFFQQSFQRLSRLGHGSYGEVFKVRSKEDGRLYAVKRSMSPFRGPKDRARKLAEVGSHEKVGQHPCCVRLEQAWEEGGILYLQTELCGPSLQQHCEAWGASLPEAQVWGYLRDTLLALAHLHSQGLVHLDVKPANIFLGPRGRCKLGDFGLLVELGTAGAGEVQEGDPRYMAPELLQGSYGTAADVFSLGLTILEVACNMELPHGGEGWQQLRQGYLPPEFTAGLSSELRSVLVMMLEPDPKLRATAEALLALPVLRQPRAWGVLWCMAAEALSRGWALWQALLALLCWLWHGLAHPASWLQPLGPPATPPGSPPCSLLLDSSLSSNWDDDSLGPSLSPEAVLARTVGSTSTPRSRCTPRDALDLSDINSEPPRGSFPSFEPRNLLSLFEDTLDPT
Protocol: as §1
We used a LanthaScreen Europium (Eu) Kinase Binding Assay to determine the binding affinities (IC50) of compounds to Myt1 kinase. […] “NT” designates that the compound was not tested in this assay.

| Compound | IC50 [1] [nM] | EC50 [2] [nM] | IC50 [3] [nM] |
| --- | --- | --- | --- |
| C=CCn1c(=O)c2cnc(Nc3ccc4c(cnn4C)c3)nc2n1-c1cccc(O[C@@H]2CCN[C@@H](C)C2)n1 (relative stereo) [Compound 405, rel-2-allyl-6-((1-methyl-1H-indazol-5-yl)amino)-1-(6-(((2R,4S)-2-methylpiperidin-4-yl)oxy)pyridin-2-yl)-1,2-dihydro-3H-pyrazolo[3,4-d]pyrimidin-3-one] | < 10 | < 100 | 20 to 100 |
| C=CCn1c(=O)c2cnc(Nc3ccc(F)cc3)nc2n1-c1cccc(O[C@H]2CCCNCC2)n1 (single isomer, unassigned) [Compound 266] | < 10 | 100 to 500 | 20 to 100 |
| C=CCn1c(=O)c2cnc(Nc3ccc(F)cc3)nc2n1-c1cccc(OC2CCCNCC2)n1 (single isomer, unassigned) [Compound 344] | < 10 | 100 to 500 | > 500 |
| C=CCn1c(=O)c2cnc(Nc3ccc(F)cc3)nc2n1-c1cccc(OC2CCCN(C)CC2)n1 (single isomer, unassigned) [Compound 351] | < 10 | < 100 | 20 to 100 |
| C=CCn1c(=O)c2cnc(Nc3ccc4c(cnn4C)c3)nc2n1-c1cccc(OC2CCCNCC2)n1 (single isomer, unassigned) [Compound 357] | < 10 | < 100 | 20 to 100 |
| C=CCn1c(=O)c2cnc(Nc3ccc4c(cnn4C)c3)nc2n1-c1cccc(O[C@H]2CCCNCC2)n1 (single isomer, unassigned) [Compound 358] | < 10 | < 100 | 100 to 500 |
| C=CCn1c(=O)c2cnc(Nc3ccc(F)cc3)nc2n1-c1cccc(OC2CCCN(C)CC2)n1 (single isomer, unassigned) [Compound 372] | < 10 | < 100 | 20 to 100 |
| C=CCn1c(=O)c2cnc(Nc3ccc(Cl)cc3)nc2n1-c1cccc(OC2CCCNC2)n1 (stereo in doubt) [Compound 159, 6-[(4-chlorophenyl)amino]-1-{6-[(3R)-piperidin-3-yloxy]pyridin-2-yl}-2-(prop-2-en-1-yl)-1H,2H,3H-pyrazolo[3,4-d]pyrimidin-3-one] | < 10 | 500 to 1000 | 20 to 100 |
| C=CCn1c(=O)c2cnc(Nc3ccc4c(cnn4C)c3)nc2n1-c1cccc(O[C@H]2CCN[C@H](C)C2)n1 (stereo in doubt) [Compound 379, 2-allyl-6-((1-methyl-1H-indazol-5-yl)amino)-1-(6-(((2R,4S)-2-methylpiperidin-4-yl)oxy)pyridin-2-yl)-1,2-dihydro-3H-pyrazolo[3,4-d]pyrimidin-3-one] | < 10 | 100 to 500 | 100 to 500 |
| C=CCn1c(=O)c2cnc(Nc3ccc4c(cnn4C)c3)nc2n1-c1cccc(O[C@H]2CCN(C)[C@H](C)C2)n1 (stereo in doubt) [Compound 380, rel-2-allyl-1-(6-(((2R,4S)-1,2-dimethylpiperidin-4-yl)oxy)pyridin-2-yl)-6-((1-methyl-1H-indazol-5-yl)amino)-1,2-dihydro-3H-pyrazolo[3,4-d]pyrimidin-3-one] | < 10 | 100 to 500 | 100 to 500 |
| C=CCn1c(=O)c2cnc(Nc3ccc4c(cnn4C)c3)nc2n1-c1cccc(O[C@@H]2CCN[C@H](C)C2)n1 (stereo in doubt) [Compound 381, 2-allyl-6-((1-methyl-1H-indazol-5-yl)amino)-1-(6-(((2R,4R)-2-methylpiperidin-4-yl)oxy)pyridin-2-yl)-1,2-dihydro-3H-pyrazolo[3,4-d]pyrimidin-3-one] | < 10 | < 100 | 100 to 500 |
| C=CCn1c(=O)c2cnc(Nc3ccc4c(cnn4C)c3)nc2n1-c1cccc(O[C@@H]2CCN(C)[C@H](C)C2)n1 (stereo in doubt) [Compound 382, 2-allyl-1-(6-(((2R,4R)-1,2-dimethylpiperidin-4-yl)oxy)pyridin-2-yl)-6-((1-methyl-1H-indazol-5-yl)amino)-1,2-dihydro-3H-pyrazolo[3,4-d]pyrimidin-3-one] | < 10 | < 100 | 100 to 500 |
| C=CCn1c(=O)c2cnc(Nc3ccc4c(cnn4C)c3)nc2n1-c1cccc(O[C@@H]2CCNC2)n1 [Compound 101, 1-{6-[(R)-3-pyrrolidinyloxy]-2-pyridyl}-2-allyl-6-(1-methyl-1H-indazol-5-ylamino)-1,2-dihydro-3H-1,2,5,7-tetraazainden-3-one] | < 10 | 100 to 500 | 100 to 500 |
| C=CCn1c(=O)c2cnc(Nc3ccc4c(cnn4C)c3)nc2n1-c1cccc(N[C@H]2CCNC2)n1 [Compound 107, 1-{6-[(S)-3-pyrrolidinylamino]-2-pyridyl}-2-allyl-6-(1-methyl-1H-indazol-5-ylamino)-1,2-dihydro-3H-1,2,5,7-tetraazainden-3-one] | < 10 | > 1000 | 20 to 100 |
| C=CCn1c(=O)c2cnc(Nc3ccc(OC)nc3)nc2n1-c1cccc(OC2CCNCC2)n1 [Compound 251, 2-allyl-6-(6-methoxy-3-pyridylamino)-1-[6-(4-piperidyloxy)-2-pyridyl]-1,2-dihydro-3H-1,2,5,7-tetraazainden-3-one] | < 10 | – | 20 to 100 |
| C=CCn1c(=O)c2cnc(Nc3ccc4ncccc4c3)nc2n1-c1cccc(OC2CCN(C)CC2)n1 [Compound 325, 2-allyl-1-[6-(1-methyl-4-piperidyloxy)-2-pyridyl]-6-(6-quinolylamino)-1,2-dihydro-3H-1,2,5,7-tetraazainden-3-one] | < 10 | – | 20 to 100 |
| CCn1c(=O)c2cnc(Nc3cnn(C)c3)nc2n1-c1cccc(OC2CCN(C)CC2)n1 [Compound 341, 2-ethyl-6-[(1-methyl-1H-pyrazol-4-yl)amino]-1-{6-[(1-methylpiperidin-4-yl)oxy]pyridin-2-yl}-1H,2H,3H-pyrazolo[3,4-d]pyrimidin-3-one] | – | 100 to 500 | 20 to 100 |
